The test concerns the target T1, human GLP-1 receptor (Homo sapiens, UniProt P43220).
T1 construct: expressed in transfected cells
Briefly: GLP-1R cAMP Assay. The test is classed as cell-based. In outline:
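CHO cells stably overexpressing human GLP-1R, 10,000 cells/well, treated with compound in 20-point dose response in triplicate for 30 min. cAMP accumulation read by enzyme-complementation luminescence after lysis and overnight incubation; dose-response curves fitted.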

The mark [1] stands for this setting: cAMP accumulation in CHO cells stably overexpressing the human GLP-1 receptor, 30 min treatment, HitHunter cAMP kit, read-out: EC50.

Like-named read-outs stand apart in the source and are kept apart here. Some results are limits rather than exact numbers.

One may read the EC50 as the midpoint of the concentration-response curve.

T1 sequence (P43220 24-463): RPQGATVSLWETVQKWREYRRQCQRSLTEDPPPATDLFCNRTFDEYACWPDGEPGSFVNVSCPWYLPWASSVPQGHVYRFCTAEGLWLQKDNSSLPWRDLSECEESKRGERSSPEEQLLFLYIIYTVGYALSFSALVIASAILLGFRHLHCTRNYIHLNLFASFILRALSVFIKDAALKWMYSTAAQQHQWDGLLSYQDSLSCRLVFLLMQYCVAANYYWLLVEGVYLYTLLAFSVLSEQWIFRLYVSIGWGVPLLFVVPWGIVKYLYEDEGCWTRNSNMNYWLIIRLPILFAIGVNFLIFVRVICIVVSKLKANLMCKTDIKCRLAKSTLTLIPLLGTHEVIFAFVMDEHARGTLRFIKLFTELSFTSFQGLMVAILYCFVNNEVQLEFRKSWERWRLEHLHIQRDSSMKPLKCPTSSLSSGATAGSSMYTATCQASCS

For `N#Cc1ccc(OCc2nccc(OC3CCN(Cc4nc5ncc(C(=O)O)cc5n4C[C@@H]4CCO4)CC3)n2)c(F)c1` [Example 486, (S)-2-((4-((2-((4-Cyano-2-fluorophenoxy)methyl)pyrimidin-4-yl)oxy)piperidin-1-yl)methyl)-1-(oxetan-2-ylmethyl)-1H-imidazo[4,5-b]pyridine-6-carboxylic acid], the EC50 under setting [1] is less than 50 nM. `O=C(O)c1cc(F)c2nc(CN3CCC(Oc4ccnc(COc5ccc(C(F)F)cc5F)n4)CC3)n(C[C@@H]3CCO3)c2c1` [Compound 312, 2-({4-[(2-{[4-(difluoromethyl)-2-fluorophenoxy]methyl}pyrimidin-4-yl)oxy]piperidin;-1-yl}methyl)-1-{[(2S)-oxetan-2-yl]methyl}-1H-1,3-benzodiazole-6-carboxylic acid]: the EC50 under setting [1] was less than 50 nM. On the same count and under the same terms, then `CCn1cncc1Cn1c(CN2CCC(C)(Cc3ccnc(COc4ccc(Cl)cc4Cl)c3)CC2)nc2ccc(C(=O)O)cc21` [Example 163, 2-((4-((2-((2,4-Dichlorophenoxy)methyl)pyridin-4-yl)methyl)-4-methylpiperidin-1-yl)methyl)-1-((1-ethyl-1H-imidazol-5-yl)methyl)-1H-benzo[d]imidazole-6-carboxylic acid], with less than 50 nM; and `O=C(O)c1cc(F)c2nc(CN3CCC(Oc4ccnc(COc5cc(F)c(F)cc5F)n4)CC3)n(C[C@@H]3CCO3)c2c1` [Compound 494, 4-fluoro-1-{[(2S)-oxetan-2-yl]methyl}-2-{[4-({2-[(2,4,5-trifluorophenoxy)methyl]pyrimidin-4-yl}oxy)piperidin-1-yl]methyl}-1H-1,3-benzodiazole-6-carboxylic acid], with less than 50 nM. Same read-out and setting: then `CCn1cncc1Cn1c(CN2CCC(Oc3cccc(COc4ncc(Cl)cc4F)c3)CC2)nc2ccc(C(=O)O)cc21` [Compound 294], with 50 to 500 nM. Take `CCn1cncc1Cn1c(CN2CCC(Oc3ccnc(COc4ccc(Cl)cc4C#N)c3)CC2(C)C)nc2ccc(C(=O)O)cc21` (stereo not drawn) [Example 276, 2-((4-((2-((4-Chloro-2-cyanophenoxy)methyl)pyridin-4-yl)oxy)-2,2-dimethylpiperidin-1-yl)methyl)-1-((1-ethyl-1H-imidazol-5-yl)methyl)-1H-benzo[d]imidazole-6-carboxylic acid]: the EC50 under setting [1] was less than 50 nM. With `N#Cc1cc(Cl)ccc1OCc1cc(OC2CCN(Cc3nc4ccc(C(=O)O)cc4n3Cc3ccno3)CC2)ccn1` [Compound 241, 2-{[4-({2-[(4-chloro-2-cyanophenoxy)methyl]pyridin-4-yl}oxy)piperidin-1-yl]methyl}-1-[(1,2-oxazol-5-yl)methyl]-1H-1,3-benzodiazole-6-carboxylic acid], the EC50 under setting [1] was less than 50 nM. Still for that read-out and setting: then `CCn1cncc1Cn1c(CN2CCC(Cc3cncc(COc4ccc(Cl)cc4Cl)c3)CC2)nc2ccc(C(=O)O)cc21` [Compound 139, 2-{[4-({5-[(2,4-dichlorophenoxy)methyl]pyridin-3-yl}methyl)piperidin-1-yl]methyl}-1-[(1-ethyl-1H-imidazol-5-yl)methyl]-1H-1,3-benzodiazole-6-carboxylic acid], with less than 50 nM; and `N#Cc1cc(C2CC2)ccc1OCc1nccc(OC2CCN(Cc3nc4c(F)cc(C(=O)O)cc4n3C[C@@H]3CCO3)CC2)n1` [Compound 508, (S)-2-((4-((2-((2-cyano-4-cyclopropylphenoxy)methyl)pyrimidin-4-yl)oxy)piperidin-1-yl)methyl)-4-fluoro-1-(oxetan-2-ylmethyl)-1H-benzo[d]imidazole-6-carboxylic acid], with less than 50 nM; and `O=C(O)c1ccc2nc(CN3CCN(C(=O)c4cccc(Oc5ccc(C(F)(F)F)cc5Cl)c4)CC3)n(C[C@@H]3CCO3)c2c1` [Example 2, (S)-2-((4-(3-(2-Chloro-4-(trifluoromethyl)phenoxy)benzoyl)piperazin-1-yl)methyl)-1-(oxetan-2-ylmethyl)-1H-benzo[d]imidazole-6-carboxylic acid], with greater than 500 nM. The molecule `C[C@H]1C[C@@H](Oc2ccnc(COc3ccc(C#N)cc3F)c2)CCN1Cc1nc2ccc(C(=O)O)cc2n1C[C@@H]1CCO1` [Compound 363] gave an EC50 of less than 50 nM. With `CCn1cncc1Cn1c(CN2CCC(Cc3cnc(COc4ccc(Cl)cc4C#N)o3)CC2)nc2ccc(C(=O)O)cc21` [Compound 138, 2-{[4-({2-[(4-chloro-2-cyanophenoxy)methyl]-1,3-oxazol-5-yl}methyl)piperidin-1-yl]methyl}-1-[(1-ethyl-1H-imidazol-5-yl)methyl]-1H-1,3-benzodiazole-6-carboxylic acid], under setting [1], the concentration for a half-maximal effect (EC50) is less than 50 nM.

Turning to `Cc1ccc(N(C)Cc2cccc(C(=O)N3CCN(Cc4nc5ccc(C(=O)O)cc5n4C[C@@H]4CCO4)CC3)c2)c(Cl)c1` [Example 78, (S)-2-((4-(3-(((2-Chloro-4-methylphenyl)(methyl)amino)methyl)benzoyl)piperazin-1-yl)methyl)-1-(oxetan-2-ylmethyl)-1H-benzo[d]imidazole-6-carboxylic acid], the EC50 under setting [1] is greater than 500 nM. As for `O=C(O)c1ccc2nc(CN3CCC(Oc4ccnc(COc5ccc(Cl)cc5F)n4)CC3)n(C[C@@H]3CCO3)c2c1` [Compound 296, 2-{[4-({2-[(4-chloro-2-fluorophenoxy)methyl]pyrimidin-4-yl}oxy)piperidin-1-yl]methyl}-1-{[(2S)-oxetan-2-yl]methyl}-1H-1,3-benzodiazole-6-carboxylic acid], the EC50 under setting [1] was less than 50 nM. On the same count and under the same terms, then `Cc1ccccc1Oc1cccc(C(=O)N2CCN(Cc3nc4ccc(C(=O)O)cc4n3C[C@@H]3CCO3)CC2)c1` [Example 14, (S)-1-(Oxetan-2-ylmethyl)-2-((4-(3-(o-tolyloxy)benzoyl)piperazin-1-yl)methyl)-1H-benzo[d]imidazole-6-carboxylic acid], with greater than 500 nM; and `N#Cc1ccc(OCc2cc(OC3CCN(Cc4nc5ccc(C(=O)O)cc5n4C[C@@H]4CCO4)CC3)cnn2)c(F)c1` [Compound 491, 2-{[4-({6-[(4-cyano-2-fluorophenoxy)methyl]pyridazin-4-yl}oxy)piperidin-1-yl]methyl}-1-{[(2S)-oxetan-2-yl]methyl}-1H-1,3-benzodiazole-6-carboxylic acid], with less than 50 nM; and `CCn1cncc1Cn1c(CN2CCC(Cc3cnc(COc4ccc(Cl)cc4Cl)o3)CC2)nc2ccc(C(=O)O)cc21` [Compound 124, 2-{[4-({2-[(2,4-dichlorophenoxy)methyl]-1,3-oxazol-5-yl}methyl)piperidin-1-yl]methyl}-1-[(1-ethyl-1H-imidazol-5-yl)methyl]-1H-1,3-benzodiazole-6-carboxylic acid], with less than 50 nM. The same measure, in the same setting: then `C[C@H]1C[C@@H](Oc2cccc(COc3ccc(Cl)cc3F)n2)CCN1Cc1nc2ccc(C(=O)O)cc2n1C[C@@H]1CCO1` [Compound 291, 2-{[(2S,4S)-4-({6-[(4-chloro-2-fluorophenoxy)methyl]pyridin-2-yl}oxy)-2-methylpiperidin-1-yl]methyl}-1-{[(2S)-oxetan-2-yl]methyl}-1H-1,3-benzodiazole-6-carboxylic acid], with less than 50 nM; and `N#Cc1ccc(OCc2cccc(OC3CCN(Cc4nc5c(F)cc(C(=O)O)cc5n4C[C@@H]4CCO4)CC3)c2)c(F)c1` [Compound 309], with less than 50 nM. On the same count and under the same terms, then `CCn1cncc1Cn1c(CN2CCC(Cc3ccc(COc4ccc(Cl)cc4Cl)o3)CC2)nc2ccc(C(=O)O)nc21` [Compound 108, 2-{[4-({5-[(2,4-dichlorophenoxy)methyl]furan-2-yl}methyl)piperidin-1-yl]methyl}-3-[(1-ethyl-1H-imidazol-5-yl)methyl]-3H-imidazo[4,5-b]pyridine-5-carboxylic acid], with less than 50 nM. Turning to `O=C(O)c1ccc2nc(CN3CCC(Oc4cccc(OCc5ccc(F)cc5Cl)c4)CC3)n(C[C@@H]3CCO3)c2c1` [Compound 207], under setting [1], the EC50 is less than 50 nM. Still for that read-out and setting: then `Cc1ccc(N(C)c2cc(C(=O)N3CCN(Cc4nc5ccc(C(=O)O)cc5n4C[C@@H]4CCO4)CC3)ccn2)c(Cl)c1` [Example 99, (S)-2-((4-(2-((2-Chloro-4-methylphenyl)(methyl)amino)isonicotinoyl)piperazin-1-yl)methyl)-1-(oxetan-2-ylmethyl)-1H-benzo[d]imidazole-6-carboxylic acid], with 50 to 500 nM.

On to `C[C@H]1C[C@@H](Oc2cccc(COc3ccc(C#N)cc3F)c2)CCN1Cc1nc2c(F)cc(C(=O)O)cc2n1C[C@@H]1CCO1` [Compound 320], for which the EC50 under setting [1] is less than 50 nM. On the same count and under the same terms, then `CCN(c1cccc(C(=O)N2CCN(Cc3nc4ccc(C(=O)O)cc4n3C[C@@H]3CCO3)CC2)c1)c1ccc(C)cc1Cl` [Compound 52, 2-[(4-{3-[(2-chloro-4-methylphenyl)(ethyl)amino]benzoyl}piperazin-1-yl)methyl]-1-{[(2S)-oxetan-2-yl]methyl}-1H-1,3-benzodiazole-6-carboxylic acid], with less than 50 nM; and `Cc1ccc(N(C)c2cccc(C(=O)N3CCN(Cc4nc5ccc(C(=O)O)cc5n4C[C@@H]4CCO4)CC3)n2)c(Cl)c1` [Compound 101, 2-[(4-{6-[(2-chloro-4-methylphenyl)(methyl)amino]pyridine-2-carbonyl}piperazin-1-yl)methyl]-1-{[(2S)-oxetan-2-yl]methyl}-1H-1,3-benzodiazole-6-carboxylic acid], with 50 to 500 nM. `Cc1ccc(N(C)c2cccc(C(=O)N3CC4CCC(C3)N4Cc3nc4ccc(C(=O)O)cc4n3C[C@@H]3CCO3)c2)c(Cl)c1` [Compound 87, 2-[(3-{3-[(2-chloro-4-methylphenyl)(methyl)amino]benzoyl}-3,8-diazabicyclo[3,2.1]octan-8-yl)methyl]-1-{[(2S)-oxetan-2-yl]methyl}-1H-1,3-benzodiazole-6-carboxylic acid]: the half-maximal effective concentration (EC50) under setting [1] is 50 to 500 nM. As to `O=C(O)c1ccc2nc(CN3CCN(Cc4ccc(OCc5ccc(Cl)cc5Cl)o4)CC3)n(C[C@@H]3CCO3)c2c1` [Example 74, (S)-2-((4-((5-((2,4-Dichlorobenzyl)oxy)furan-2-yl)methyl)piperazin-1-yl)methyl)-1-(oxetan-2-ylmethyl)-1H-benzo[d]imidazole-6-carboxylic acid], the EC50 under setting [1] is greater than 500 nM.
